How the values were obtained:
[1] = tested on: transgenic soybean plants with DMO-encoding polynucleotide (Events 1-4); test: Greenhouse, post-V3 applications of different auxin-like herbicides, visual % injury; assay type: in vivo; conditions: for tolerance of DMO polynucleotide containing soybean: post-V3 application
Experimental: (§1) This was carried out by applying various concentrations of commercially available formulations of other auxin-like herbicides such as 2,4-D (Helena, Collierville, Tenn.), MCPA (Agriliance, St. Paul, Minn.), triclopyr (GARLON 3A; Dow Elanco, Indianapolis, Ind.), clopyralid (STINGER; Dow Elanco, Indianapolis, Ind.), picloram (TORDON 22K; Dow Elanco, Indianapolis, Ind.), or Banvel or CLARITY (BASF, Raleigh, N.C.) to DMO containing plant tissues or plants.
(§2) Transgenic soybean plants were obtained by Agrobacterium-mediated transformation of soybean explants with a DMO-encoding polynucleotide as described above for the events designated Events 1-4. A non-transgenic line was used as a control.
(§3) Applications were made when plants had reached V-3 stage.
(§4) Data were collected using a palm top computer and analyzed using standard statistical methods. The results shown in Table 10 clearly indicate tolerance of transgenic soybean to other auxin-like herbicides such as 2,4-D and MCPA relative to the non-transgenic line.

[2] = tested on: non-transgenic soybean plants; test: as above; assay type: in vivo
Experimental: as §1, §2, §3, §4

Marestail Resistant (KY) = test: Dicamba, glyphosate and their combination on marestail; assay type: in vivo, Conyza canadensis; conditions: glyphosate formulation 200 g/ha
MARESTAIL (CA) Resistant = test: Control of marestail by dicamba or glyphosate, treated at rosette leaf stage; assay type: in vivo, Conyza canadensis; conditions: glyphosate formulation 2100 g/ha
Description: (§5) Marestail is one of the major weeds in a crop field. Marestail is effectively controlled by glyphosate, but the development of methods for controlling this common weed with other herbicides is important to minimize opportunities for herbicide tolerance to develop.

MARESTAIL (KY) Resistant = test: as above; assay type: in vivo, Conyza canadensis; conditions: glyphosate formulation 2100 g/ha
Description: as §5

Structure (SMILES) | % injury at 21 DAT ([1]; Event 1, 280 g ae/ha post-V3) [%] | % injury at 21 DAT ([1]; Event 1, 561 g ae/ha post-V3) [%] | % injury at 21 DAT ([1]; Event 1, 1120 g ae/ha post-V3) [%] | % injury at 21 DAT ([1]; Event 2, 280 g ae/ha post-V3) [%] | % injury at 21 DAT ([1]; Event 2, 561 g ae/ha post-V3) [%] | % injury at 21 DAT ([1]; Event 2, 1120 g ae/ha post-V3) [%] | % injury at 21 DAT ([1]; Event 3, 280 g ae/ha post-V3) [%] | % injury at 21 DAT ([1]; Event 3, 561 g ae/ha post-V3) [%] | % injury at 21 DAT ([1]; Event 3, 1120 g ae/ha post-V3) [%] | % injury at 21 DAT ([1]; Event 4, 280 g ae/ha post-V3) [%] | % injury at 21 DAT ([1]; Event 4, 561 g ae/ha post-V3) [%] | % injury at 21 DAT ([1]; Event 4, 1120 g ae/ha post-V3) [%] | tolerance of DMO polynucleotide containing soybean [1] | % injury at 21 DAT ([2]; 280 g ae/ha post-V3) [%] | % injury at 21 DAT ([2]; 561 g ae/ha post-V3) [%] | % injury at 21 DAT ([2]; 1120 g ae/ha post-V3) [%] | % injury at 14 DAT ([1]; Event 1, 280 g ae/ha post-V3) [%] | % injury at 14 DAT ([1]; Event 1, 561 g ae/ha post-V3) [%] | % injury at 14 DAT ([1]; Event 1, 1120 g ae/ha post-V3) [%] | % injury at 14 DAT ([1]; Event 2, 280 g ae/ha post-V3) [%] | also measured
Cc1cc(Cl)ccc1OCC(=O)O [MCPA, (4-chloro-2-methylphenoxy)acetic acid] | 72.5 | 99.3 | 100.0 | 55.0 | 95.0 | 99.7 | 55.0 | 95.8 | 100.0 | 88.3 | 98.8 | 100.0 | tolerant to low levels | 93.0 | 98.3 | 100.0 | – | – | – | – | –
O=C(O)COc1ccc(Cl)cc1Cl [2,4-D, (2,4-dichlorophenoxy)acetic acid] | 58.3 | 75.0 | 100.0 | 64.2 | 94.7 | 100.0 | 40.0 | 85.0 | 100.0 | 45.8 | 84.2 | 100.0 | tolerant to low levels | 86.8 | 100.0 | 100.0 | – | – | – | – | –
O=C(O)c1nc(Cl)ccc1Cl [Clopyralid, 3,6-dichloro-2-pyridinecarboxylic acid] | – | – | – | – | – | – | – | – | – | – | – | – | – | – | – | – | 99.2 | 100.0 | 100.0 | 98.2 | % injury at 14 DAT ([1]; Event 2, 561 g ae/ha post-V3): 99.7%; % injury at 14 DAT ([1]; Event 2, 1120 g ae/ha post-V3): 100.0%; % injury at 14 DAT ([1]; Event 3, 280 g ae/ha post-V3): 99.3%; % injury at 14 DAT ([1]; Event 3, 561 g ae/ha post-V3): 100.0%; % injury at 14 DAT ([1]; Event 3, 1120 g ae/ha post-V3): 100.0%; % injury at 14 DAT ([1]; Event 4, 280 g ae/ha post-V3): 99.7%; % injury at 14 DAT ([1]; Event 4, 561 g ae/ha post-V3): 100.0%; % injury at 14 DAT ([1]; Event 4, 1120 g ae/ha post-V3): 100.0%; % injury at 14 DAT ([2]; 280 g ae/ha post-V3): 99.3%; % injury at 14 DAT ([2]; 561 g ae/ha post-V3): 100.0%; % injury at 14 DAT ([2]; 1120 g ae/ha post-V3): 100.0%
O=C(O)CNCP(=O)(O)O [glyphosate, N-phosphonomethylglycine] | – | – | – | – | – | – | – | – | – | – | – | – | – | – | – | – | – | – | – | – | % Injury (18 DAT) (Marestail Resistant (KY)): 6%; % Injury (21 DAT) (MARESTAIL (CA) Resistant): about 77%; % Injury (21 DAT) (MARESTAIL (KY) Resistant): about 91%
Nc1c(Cl)c(Cl)nc(C(=O)O)c1Cl [Picloram, 4-amino-3,5,6-trichloro-2-pyridinecarboxylic acid] | – | – | – | – | – | – | – | – | – | – | – | – | – | – | – | – | 99.7 | 100.0 | 100.0 | 99.3 | % injury at 14 DAT ([1]; Event 2, 561 g ae/ha post-V3): 100.0%; % injury at 14 DAT ([1]; Event 2, 1120 g ae/ha post-V3): 100.0%; % injury at 14 DAT ([1]; Event 3, 280 g ae/ha post-V3): 99.3%; % injury at 14 DAT ([1]; Event 3, 561 g ae/ha post-V3): 99.7%; % injury at 14 DAT ([1]; Event 3, 1120 g ae/ha post-V3): 100.0%; % injury at 14 DAT ([1]; Event 4, 280 g ae/ha post-V3): 99.3%; % injury at 14 DAT ([1]; Event 4, 561 g ae/ha post-V3): 100.0%; % injury at 14 DAT ([1]; Event 4, 1120 g ae/ha post-V3): 100.0%; % injury at 14 DAT ([2]; 280 g ae/ha post-V3): 99.3%; % injury at 14 DAT ([2]; 561 g ae/ha post-V3): 100.0%; % injury at 14 DAT ([2]; 1120 g ae/ha post-V3): 100.0%
